What was measured:
[1] = tested on: rabbits on a high-cholesterol diet; assay: Test No. 3: cholesterol levels in rabbits on 0.1% cholesterol diet without diabetes; format: in vivo, rabbit; conditions: cholesterol around 250 mg/dl, versus control group and scoparone group (FIG. 3)
Protocol: As further confirmation of this interesting result, we prepared another experimental model. In this case, hypercholesterolaemia was induced in rabbit by administration of a 0.1% cholesterol diet, without simultaneously inducing diabetes. In these experimental conditions, cholesterol levels of around 250 mg/dl were obtained, that is to say, values that are compatible with the pathological situation normally observed in humans affected by hypercholesterol. The rabbits were divided into three treatment groups: controls treated with saline, a second group receiving scoparone and a third receiving cloricromene.

[2] = tested on: hypercholesterolaemic-diabetic rabbits; assay: Test No. 2: weekly cholesterol levels in rabbits with alloxan diabetes on 1% cholesterol diet; format: in vivo
Source text: In the same experimental model, in which a diabetic pathology is induced by treating the animals with alloxan, and hypercholesterolaemia is induced by administering a 1% cholesterol diet, we monitored at weekly intervals the cholesterol levels of the rabbits, which had been divided into the following treatment groups: • 1. Control, treated with saline solution • 2. Scoparone • 3. Cloricromene

[3] = tested on: hypercholesterolaemic-diabetic rabbits; assay: Test No. 1: tolerability and cholesterol-lowering effect in rabbits on 1% cholesterol diet with alloxan-induced diabetes; format: in vivo, rabbit; conditions: for body weight curve: treated chronically for 4-5 weeks, weighed weekly, versus untreated control group (FIG. 1)
Protocol: A preliminary experiment was performed to assess the ability of cloricromene to reduce plasma levels of cholesterol and triglycerides in rabbits fed on a high-fat diet, treated chronically for 4-5 weeks. As reference product we used scoparone, as it is the only coumarin derivative of vegetable origin with a documented effect on these parameters.
The experimental model induces high levels of cholesterol and triglycerides in the plasma by a 1% cholesterol-enriched diet, simultaneously inducing diabetes by injection of alloxan, a highly toxic product for the β cells of the pancreas. In this way, it is possible to reach very high values of cholesterol and triglycerides in the system rapidly. The body weight of the animals and the plasma levels of the test parameters were assessed weekly throughout the experiment.

[4] = tested on: patients with Peripheral Vascular Disease (PVD) at Fontaine stage II; assay: Multicentre, double-blind, randomised, placebo-controlled study in patients with Peripheral Vascular Disease (Fontaine stage II); format: in vivo, human
Source text: We conducted a multicentre, double-blind, randomised study, controlled versus placebo, on 159 patients with Peripheral Vascular Disease (PVD) at Fontaine stage II, the classic symptom of which is Intermittent Claudication (IC).
In our study, besides assessing the effect of cloricromene on IC, we also studied the cholesterol-lowering effects of the drug and the incidence of major cardiovascular events (myocardial infarction, stroke, vascular death, progression to Fontaine stages III-IV) after a treatment period of six months.
In analysing the cholesterol-lowering effect, 117 patients were considered who presented cholesterol values at baseline of over 190 mg/dI.
The critical value of 190 mg/dl was selected on the basis of data from the international literature that report this value as the risk threshold in pathologies such as cardiac ischaemia and atherosclerosis in general, in which excessive cholesterol represents a real risk factor. Therefore, the patients who presented cholesterol values equal to or over 190 mg/dl were considered to be at risk from said pathologies.
For the purposes of this analysis, 58 patients were treated for 6 months with 200 mg of cloricromene per day (one capsule of 100 mg twice a day), while the remaining 59 patients were treated with placebo (Table). All the patients also took aspirin at a dose of 160 mg/day throughout the trial.

[5] = 1% cholesterol diet + alloxan, 4-5 weeks, cloricromene group versus scoparone group

## CCOC(=O)COc1ccc2c(C)c(CCN(CC)CC)c(=O)oc2c1Cl [cloricromene, 8-chloro-3(β-diethylaminoethyl)-4-methyl-7-ethoxycarbonylmethoxy coumarin]
[1]
  cholesterol levels: markedly lower
[2]; 1% cholesterol diet + alloxan, versus saline control and scoparone, evident from third week of treatment (FIG. 2)
  cholesterol levels: markedly lower than those of both the control group and that treated with scoparone
[3]; [5]
  plasma levels of cholesterol: tended to be lower
  plasma levels of triglycerides: tended to be lower
[3]; 1% cholesterol diet + alloxan
  body weight curve: superimposable on that of the control group
[3]; repeated administration, in comparison to scoparone
  toxic activity on repeated administration over long periods: absolute lack of toxic activity
[4]; 58 patients with baseline cholesterol over 190 mg/dl, after 6 months of 200 mg cloricromene per day (100 mg capsule twice a day), plus aspirin 160 mg/day, p = 0.0035 vs week 0
  Cholesterol levels at week 24: 229 ± 32
[4]; 58 patients with baseline cholesterol over 190 mg/dl, baseline before 200 mg cloricromene per day, plus aspirin 160 mg/day
  Cholesterol levels at Week 0: 243 ± 31
[4]; cloricromene versus placebo, 6 months, p=0.04, α=0.05
  difference in cholesterol between treatment groups (analysis of covariance): statistically significant in favour of the group treated with cloricromene
[4]; patients, treatment period of six months
  major cardiovascular events or deaths: no major cardiovascular events or deaths were observed

## COc1cc2ccc(=O)oc2cc1OC [scoparone]
[2]; end of experiment, scoparone group versus cloricromene group
  number of animals that completed the treatment: considerably lower
[3]; 1% cholesterol diet + alloxan
  body weight curve: marked and progressive reduction in body weight
